According to patent US20230190848A1 (priority 2021, published 2023):

Assays:
[1] = system: calreticulin; assay: Calreticulin expression on infected L929 cell membrane; format: cell-based; conditions: L929 infected with MHV-A59 (FIG. 3)
Experimental: To determine if the P2Et extract of the invention can inhibit virus infection L929 cells were seeded in 12-well plates at a concentration of […] for well and cultured overnight. Cells were pretreated for 2 h with the P2Et or controls, washed twice with PBS 1× and inoculated with 200 μl of the virus suspension to 0.1, 0.01 or 0.001 MOI in DMEM, 1 h at room temperature in mechanical agitation. The virus inoculum was removed, the cells were treated again with extracts for 6, 12 and 24 h. Supernatants were collected for qPCR and plaque assays. The cells were collected for evaluation of proteins by western blot and ROS assays by flow cytometry.
Previously, we have shown that standardized P2Et extract induces immunogenic cell death (ICD), here the expression of calreticulin, a marker of ICD, was evaluated on the L929 cell membrane infected cells.

[2] = system: SARS-CoV-2 virus; conditions: cited from earlier work

Row | Molecule | expression of calreticulin induced by viral infection on L929 cell surface [1] | suppression of viral activity [2]
1 | O=c1c(O)c(-c2ccc(O)c(O)c2)oc2cc(O)cc(O)c12 [quercetin] | decreased | –
2 | CC(=O)N[C@@H](CS)C(=O)O [NAC, N-Acetylcysteine] | decreased | –
3 | CCN(CC)CCCC(C)Nc1ccnc2cc(Cl)ccc12 (stereo not shown) [chloroquine] | decreased | –
4 | epigallocatechin-zinc gallate [EGCG-Zn^+2] | – | greater than 99%
